Laboratory results from the Deep4Chem optical property database.

Test: solvent given as SMILES

## O=[N+]([O-])c1ccc([N+]2=CC3=C(O[B-]2(F)F)c2ccccc2SC3)cc1
In ClCCl
  emission maximum: 575 nm

## Nc1ccccc1/C=C/C(F)(F)F
In C1CCOC1
  emission maximum: 427 nm

## c1ccc(-c2ccc(-c3nc(-n4c5ccccc5c5ccc6c7ccccc7n(-c7ccccc7)c6c54)nc(-n4c5ccccc5c5ccc6c7ccccc7n(-c7ccccc7)c6c54)n3)cc2)cc1
In Cc1ccccc1
  emission maximum: 495 nm
In O=P(c1ccccc1)(c1ccccc1)c1ccccc1Oc1ccccc1P(=O)(c1ccccc1)c1ccccc1
  emission maximum: 492 nm

## CN(C)c1ccccc1
In C1CCCCC1
  emission maximum: 339.9 nm

## COc1ccc(N(c2ccccc2)c2ccc(OC)cc2)cc1
In Cc1ccccc1
  emission maximum: 387 nm

## Cc1nc(-c2cc(N)ccc2O)n2c1CCCC2
In ClCCl
  emission maximum: 543 nm

## CCC1=C(C)C2=C(C)c3cccn3[B-](F)(F)[N+]2=C1C
In C1CCCCC1
  emission maximum: 515 nm
In CC(C)=O
  emission maximum: 512.5 nm
In CCO
  emission maximum: 513.5 nm
In CCOC(C)=O
  emission maximum: 512.5 nm
In CO
  emission maximum: 512.5 nm
In OCC(F)(F)F
  emission maximum: 511 nm

## O=C1[C@@H]2[C@H](C(=O)N1c1cccc3cc4ccccc4cc13)[C@H]1C[C@@H]2c2c1c(-c1ccccc1)c1ccccc1c2-c1ccccc1
In ClC(Cl)Cl
  emission maximum: 392 nm

## CC(C)CCCCN1CCc2c1ccc1c3c(ccc21)C(=O)CCC3
In C1CCCCC1
  emission maximum: 433 nm
In CC#N
  emission maximum: 489 nm
In CC(C)O
  emission maximum: 512 nm
In CCC(C)=O
  emission maximum: 481 nm
In CCO
  emission maximum: 522 nm
In CCOC(C)=O
  emission maximum: 467 nm
In CS(C)=O
  emission maximum: 472 nm
In Cc1ccccc1
  emission maximum: 452 nm
In ClCCl
  emission maximum: 472 nm
In Clc1ccccc1
  emission maximum: 462 nm

## N#Cc1cc(C#N)c(-c2cc(-n3c4ccccc4c4ccccc43)cc(-n3c4ccccc4c4ccccc43)c2)cc1-c1cc(-n2c3ccccc3c3ccccc32)cc(-n2c3ccccc3c3ccccc32)c1
In Cc1ccccc1
  emission maximum: 372 nm

## Cc1c(C(=O)c2ccccc2Cl)c2ccc3cccc4c5cccc6ccc1c(c65)c2c34
In ClCCl
  emission maximum: 482 nm

## c1ccc(-c2nc(-c3ccccc3)nc(-c3cc(-n4c5ccccc5c5ccccc54)cc(-n4c5ccccc5c5ccccc54)c3)n2)cc1
In C1CCCCC1
  emission maximum: 409.39 nm
In C1CCOC1
  emission maximum: 546.94 nm
In Cc1ccccc1
  emission maximum: 475.1 nm

## C(#Cc1ccc(C#Cc2ccccc2)cc1)c1ccccc1
In ClC(Cl)Cl
  emission maximum: 348 nm

## Cc1ccccc1CN(Cc1ccccc1C)c1nc(C#N)c(N(Cc2ccccc2C)Cc2ccccc2C)nc1C#N
In ClC(Cl)Cl
  emission maximum: 582 nm

## O=C1c2ccccc2-c2cc3ccccc3c(=O)n21
In CC#N
  emission maximum: 443 nm
In CO
  emission maximum: 445 nm
In CS(C)=O
  emission maximum: 455 nm
In ClC(Cl)Cl
  emission maximum: 445 nm

## CCN(CC)c1ccc2cc(-c3nc4cc(C(=O)Nc5ccccc5[N+](=O)[O-])ccc4o3)c(=O)oc2c1
In ClCCl
  emission maximum: 498 nm

## COC(=O)C1=C(C(=O)OC)C2(c3ccccc3-c3c(C(=O)OC)cccc32)[C@@H](c2ccc(Cl)cc2)C=C2c3cc(OC)c(OC)cc3CCN21 (some centres not stated)
In ClCCl
  emission maximum: 439 nm

## CC[N+](CC)=c1ccc2c(-c3ccccc3C(=O)O)c3c(=O)oc4c5c6c(cc4c3oc-2c1)CCCN6CCC5
In CCO
  emission maximum: 674 nm
In ClC(Cl)Cl
  emission maximum: 664 nm
In O
  emission maximum: 684 nm

## CCCCCCn1c2cc(/C=C/c3ccccc3)ccc2c2ccc(/C=C/c3ccccc3)cc21
In ClC(Cl)Cl
  emission maximum: 414.94 nm

## c1ccc(-c2cc(-c3ccc4ccc5c(-c6ccnc(-c7ccccn7)c6)ccc6ccc3c4c65)ccn2)nc1
In C1CCOC1
  emission maximum: 408 nm
In CC#N
  emission maximum: 418.01 nm
In CCC#N
  emission maximum: 408 nm
In CCCC#N
  emission maximum: 408 nm
In CCCCCC
  emission maximum: 397.99 nm
In CCCO
  emission maximum: 429 nm
In CCO
  emission maximum: 430 nm
In CO
  emission maximum: 430 nm
In Cc1ccccc1
  emission maximum: 410.17 nm

## Cc1cccc2nc(-c3ccc(-c4cc(=O)cc(-c5ccccc5)o4)cc3)c(NC3CCCCC3)n12
In ClCCl
  emission maximum: 506 nm

## CCCN1c2ccccc2Sc2cc(/C=C\c3cc(=O)oc4ccc(C)cc34)ccc21
In ClC(Cl)Cl
  emission maximum: 637 nm

## c1ccc(-c2nc(-c3ccccc3)nc(-c3ccc(-n4c5ccccc5c5cc6c7ccccc7n7c8ccccc8c(c54)c67)cc3)n2)cc1
In Cc1ccccc1
  emission maximum: 450 nm
In O=P(c1ccccc1)(c1ccccc1)c1ccc2oc3ccc(P(=O)(c4ccccc4)c4ccccc4)cc3c2c1
  emission maximum: 460 nm

## C[N+]1=C(/C=C/C=C2/N(CCCc3ccccc3)c3ccccc3C2(C)C)C(C)(C)c2ccccc21
In CS(C)=O
  emission maximum: 567 nm

## Cc1ccc(/C=C/c2nc3ccccc3s2)cc1
In C1CCCCC1
  emission maximum: 390 nm
In CO
  emission maximum: 405 nm

## N#CC(C#N)=C(c1ccc(-n2ccc3ccccc32)cc1)c1ccc(-n2ccc3ccccc32)cc1
In Cc1ccccc1
  emission maximum: 536 nm

## Cc1ccc(C2=C3C=CC(Nc4ccccc4)=[N+]3[B-](F)(F)n3c(Nc4ccccc4)ccc32)cc1
In CO
  emission maximum: 613 nm

## CC(=O)OCOC(=O)CN(CC(=O)OCOC(C)=O)c1ccccc1OCCOc1cc(NC(=O)c2ccc3c(c2)C(=O)OC32c3cc(Cl)c(OC(C)=O)cc3Oc3cc(OC(C)=O)c(Cl)cc32)ccc1N(CC(=O)OCOC(C)=O)CC(=O)OCOC(C)=O
In O
  emission maximum: 534 nm

## CCCCCCCCCCCCOc1cc2c3c(ccc4c5c(OCCCCCCCCCCCC)cc6c7c(ccc(c1c34)c75)C(=O)N(C1CCCCC1)C6=O)C(=O)N(C1CCCCC1)C2=O
In ClC(Cl)Cl
  emission maximum: 597 nm

## CC1(C)c2ccccc2N(c2ccc3c(c2)c(=O)c2cccc4c(=O)c5cc(N6c7ccccc7C(C)(C)c7ccccc76)ccc5n3c24)c2ccccc21
In Cc1ccccc1
  emission maximum: 549.35 nm

## Cc1ccccc1-c1c2ccc(=[N+]3CCCC3)cc-2oc2cc(N3CCCC3)ccc12
In CCO
  emission maximum: 576 nm
In ClCCl
  emission maximum: 573 nm

## CC(=O)c1ccc(-c2cc3c(ccc4sccc43)s2)cc1
In ClCCl
  emission maximum: 430 nm

## CC1(C)c2ccccc2-c2cc3c(cc21)c1ccccc1n3-c1ccncc1
In ClCCl
  emission maximum: 370 nm

## CCOC(=O)CSc1nc(-c2ccc(OC)cc2)c(C)c(C#N)c1C#N
In c1ccccc1
  emission maximum: 432 nm

## CN(C)c1ccc(-c2ccc3n2[B-](F)(F)[N+]2=C(c4ccccc4)C=CC2=C3C(F)(F)F)cc1
In C1COCCO1
  emission maximum: 756 nm
In CC#N
  emission maximum: 772 nm
In CCCCCC
  emission maximum: 696 nm
In CCCCO
  emission maximum: 745 nm
In CCCCOCCCC
  emission maximum: 728 nm
In CCO
  emission maximum: 750 nm
In CCOC(C)=O
  emission maximum: 755 nm
In CS(C)=O
  emission maximum: 800 nm
In Cc1ccccc1
  emission maximum: 746 nm
In ClC(Cl)(Cl)Cl
  emission maximum: 712 nm

## c1ccc(-c2nc(-c3ccccn3)[se]c2N(c2ccccc2)c2ccccc2)cc1
In ClC(Cl)Cl
  emission maximum: 498 nm

## COc1ccc(-c2ccc(-c3ccc(C#N)s3)s2)cc1
In C1CCCCC1
  emission maximum: 445 nm
In C1COCCO1
  emission maximum: 455 nm
In CC#N
  emission maximum: 476 nm
In CC(C)O
  emission maximum: 471 nm
In CCCCO
  emission maximum: 471 nm
In CCO
  emission maximum: 474 nm
In CCOC(C)=O
  emission maximum: 461 nm
In CN(C)C=O
  emission maximum: 479 nm
In CO
  emission maximum: 476 nm
In CS(C)=O
  emission maximum: 484 nm
In Cc1ccccc1
  emission maximum: 450 nm
In ClC(Cl)Cl
  emission maximum: 465 nm
In ClCCl
  emission maximum: 468 nm
In O
  emission maximum: 529 nm

## c1ccc(N(c2ccccc2)c2ccc(-c3nc4c5ccccc5c5ccccc5c4n3-c3ccccc3)cc2)cc1
In ClCCl
  emission maximum: 468 nm

## COc1ccccc1C1=[N+]2C(=C(c3ccccc3)c3c4ccccc4c(-c4ccccc4OC)n3[B-]2(F)F)c2ccccc21
In ClCCl
  emission maximum: 652 nm

## O=C1c2ccccc2-c2c(-c3cc(Br)ccc3O)[nH]c(=O)n21
In CC#N
  emission maximum: 475 nm
In CO
  emission maximum: 492 nm
In ClCCl
  emission maximum: 474 nm

## CCC1=C(C)C2=C(/C=C/Sc3ccccc3)c3c(C)c(CC)c(C)n3[B-](F)(F)[N+]2=C1C
In ClCCl
  emission maximum: 580 nm

## COc1ccc(-c2nc(N)nc(C#N)c2C#N)cc1OC
In C1COCCO1
  emission maximum: 428 nm
In CC#N
  emission maximum: 456 nm
In CC(C)=O
  emission maximum: 430 nm
In CCO
  emission maximum: 436 nm
In CCOC(C)=O
  emission maximum: 442 nm
In CO
  emission maximum: 442 nm

## CCCCCOc1ccc2c(c1)c1ccc3cccc4c5cccc6oc(=O)c2c(c65)c1c34
In C1CCOC1
  emission maximum: 462 nm

## CCN(CC)c1ccc2c(C#N)c(/C=C(\C#N)c3nc4ccccc4s3)c(=O)oc2c1
In C1COCCO1
  emission maximum: 647 nm
In CC#N
  emission maximum: 679 nm
In CCO
  emission maximum: 692 nm
In CCOC(C)=O
  emission maximum: 664 nm
In CO
  emission maximum: 701 nm
In Cc1ccccc1
  emission maximum: 637 nm
In ClCCl
  emission maximum: 666 nm

## COc1ccc(C2=[N+]3C(=Nc4c(-c5ccc6ccccc6c5)c(Br)c(-c5ccc(OC)cc5)n4[B-]3(F)F)C(c3ccc4ccccc4c3)=C2Br)cc1
In ClCCl
  emission maximum: 734 nm

## Cc1cc(C)c(B(c2c(C)cc(C)cc2C)c2c(C)cc(N3c4ccccc4Oc4ccccc43)cc2C)c(C)c1
In Cc1ccccc1
  emission maximum: 509 nm
In c1ccc2c(c1)c1ccccc1n2-c1ccc(-c2ccc(-n3c4ccccc4c4ccccc43)cc2)cc1
  emission maximum: 504 nm

## CCC1=C(C)C2=Cc3cscc3B(O)N2C1=O
In CC#N
  emission maximum: 412 nm
In CCCCCC
  emission maximum: 396 nm
In CO
  emission maximum: 418 nm
In CS(C)=O
  emission maximum: 425 nm
In ClC(Cl)Cl
  emission maximum: 414 nm

## COc1ccc(-c2cn3cc(C)c[n+]3[n-]2)cc1
In ClCCl
  emission maximum: 421 nm

## CC1(C)C(/C=C/C2=C(Cl)C(=C/C=C3/N(Cc4ccc(F)cc4)c4ccccc4C3(C)C)/CCC2)=[N+](Cc2ccc(F)cc2)c2ccccc21
In CO
  emission maximum: 809 nm

## Cc1cc(C)c(C2=C3C=CC(c4ccc5ccccc5c4)=[N+]3[B-](F)(F)n3c2ccc3-c2ccc3ccccc3c2)c(C)c1
In ClC(Cl)Cl
  emission maximum: 618 nm

## N#Cc1nc(N(Cc2ccccc2Cl)Cc2ccccc2Cl)c(C#N)nc1N(Cc1ccccc1Cl)Cc1ccccc1Cl
In ClC(Cl)Cl
  emission maximum: 567 nm

## CCOC(=O)c1c(-c2c(Cl)c3cc(C)ccc3oc2=O)nn(-c2cccc(Cl)c2)c1C(=O)OCC
In ClCCl
  emission maximum: 420 nm

## CCn1c(-c2ccc(-c3ccc4ccc5cccc6ccc3c4c56)cc2)c(-c2ccc3ccccc3c2)c(-c2ccc3ccccc3c2)c1-c1ccc(-c2ccc3ccc4cccc5ccc2c3c45)cc1
In CCOC(C)=O
  emission maximum: 460 nm

## CC(C)(C)c1cc(/C2=C3\C=CC(=N3)/C(c3ccc(Br)cc3)=c3/cc/c([nH]3)=C(\c3ccc(Br)cc3)C3=N/C(=C(/c4cc(C(C)(C)C)cc(C(C)(C)C)c4)c4cc2c[nH]4)C=C3)cc(C(C)(C)C)c1
In CC(=O)N(C)C
  emission maximum: 716 nm
